Values after ≈ are worked out from the molar mass of the structure shown. One block for each compound: values may come before it.
Legend:
HT-29 [1] = assay: Anticancer activity against human HT-29 cells assessed as cell growth inhibition measured after 48 hrs by MTT assay; format: functional, cell-based; details: HT-29, 48 h
[2] = Cytotoxicity against human Adipose tissue derived mesenchymal stem cell assessed as cell growth inhibition measured after 48 hrs by MTT assay; format: toxicity, cell-based; details: adipose tissue derived mesenchymal stem cells
HCT-116 [3] = assay: Anticancer activity against human HCT-116 cells assessed as cell growth inhibition measured after 48 hrs by MTT assay; format: functional, cell-based; details: HCT-116, 48 h
A549 [4] = assay: Anticancer activity against human A549 cells assessed as cell growth inhibition measured after 72 hrs by CCK-8 assay; format: functional, cell-based; details: A549, 72 h
MDA-MB-231 = assay: Anticancer activity against human MDA-MB-231 cells assessed as cell growth inhibition measured after 72 hrs by CCK-8 assay; format: functional, cell-based; details: MDA-MB-231, 72 h
HCT-116 [5] = assay: Anticancer activity against human HCT-116 cells assessed as cell growth inhibition measured after 72 hrs by CCK-8 assay; format: functional, cell-based; details: HCT-116, 72 h
MCF7 [6] = assay: Anticancer activity against human MCF7 cells assessed as cell growth inhibition measured after 24 hrs by MTT assay; format: functional, cell-based; details: MCF7, 24 h
HT-29 [7] = assay: Anticancer activity against human HT-29 cells assessed as cell growth inhibition measured after 24 hrs by MTT assay; format: functional, cell-based; details: HT-29, 24 h
SH-SY5Y = assay: Anticancer activity against human SH-SY5Y cells assessed as cell death upto 1000 ug/ml measured upto 72 hrs by MTT assay relative to control; format: functional; details: dose <= 1000 µg/ml, up to 1000 µg/mL
HT-29 [8] = assay: Anticancer activity against human HT-29 cells assessed as cell death upto 1000 ug/ml measured upto 72 hrs by MTT assay relative to control; format: functional; details: dose <= 1000 µg/ml, up to 1000 µg/mL
P388 = assay: Anticancer activity against P388 cells assessed as cell growth inhibition; format: functional, cell-based; details: Mus musculus
COS-7 = assay: Anticancer activity against COS-7 cells assessed as cell growth inhibition at 50 uM measured after 48 hrs by MTT assay relative to control; format: functional; details: Chlorocebus aethiops
MCF7 [9] = assay: Anticancer activity against human MCF7 cells assessed as cell growth inhibition at 50 uM measured after 48 hrs by MTT assay relative to control; format: functional
HCT-116 [10] = assay: Anticancer activity against human HCT-116 cells assessed as cell growth inhibition measured after 24 hrs by SRB assay; format: functional, cell-based; details: HCT-116, 24 h
MCF7 [11] = assay: Anticancer activity against human MCF7 cells assessed as cell growth inhibition measured after 24 hrs by SRB assay; format: functional, cell-based; details: MCF7, 24 h
Mahlavu = assay: Anticancer activity against human Mahlavu cells assessed as cell growth inhibition measured after 24 hrs by SRB assay; format: functional, cell-based
Huh-7 = assay: Anticancer activity against human Huh-7 cells assessed as cell growth inhibition measured after 24 hrs by SRB assay; format: functional, cell-based; details: Huh-7, 24 h
MCF7 [12] = assay: Anticancer activity against human MCF7 cells assessed as cell growth inhibition by SRB assay; format: functional, cell-based
MDA-MB-435 [13] = assay: Anticancer activity against human MDA-MB-435 cells assessed as cell growth inhibition by SRB assay; format: functional, cell-based
MDA-MB-435 [14] = assay: Growth inhibition of human MDA-MB-435 cells assessed as cell growth inhibition by SRB assay; format: functional
A549 [15] = assay: Anticancer activity against human A549 cells assessed as cell growth inhibition measured after 24 hrs by MTT assay; format: functional, cell-based; details: A549, 24 h
A549 [16] = assay: Anticancer activity against human A549 cells assessed as cell growth inhibition by MTT assay; format: functional, cell-based
Jurkat = assay: Anticancer activity against human Jurkat cells assessed as cell growth inhibition measured after 48 hrs by MTT assay; format: functional, cell-based
MCF7 [17] = assay: Anticancer activity against human MCF7 cells assessed as cell growth inhibition by MTT assay; format: functional, cell-based
K562 = assay: Anticancer activity against human K562 cells assessed as cell growth inhibition measured after 48 hrs by WST-1 assay; format: functional, cell-based; details: K562, 48 h
MCF7 [18] = assay: Anticancer activity against human MCF7 cells assessed as cell growth inhibition measured after 48 hrs by WST-1 assay; format: functional, cell-based; details: MCF7, 48 h
HCT-116 [19] = assay: Anticancer activity against human HCT-116 cell assessed as cell growth inhibition; format: functional, cell-based
PC-3 = assay: Anticancer activity against human PC-3 cell assessed as cell growth inhibition; format: functional, cell-based
HepG2 = assay: Anticancer activity against human HepG2 cell assessed as cell growth inhibition; format: functional, cell-based

Compound: O=C1c2ccccc2C(=O)N1/N=C/c1ccccc1
- IC50 (MCF7 [6]): 293 µM
- IC50 (HT-29 [7]): 644 µM

Compound: CCn1c2ccccc2c2cc(NC(=O)CCN3CCCC3)ccc21
- Activity (SH-SY5Y): 61%
- Activity (HT-29 [8]): 66%

Compound: O=C(/C=C/c1ccc(O)cc1)N1CCCC1
- IC50 (P388): 11.3 µg/mL (≈ 52.2 µM)

Compound: CCCCNCC(O)Cn1c2ccc(Cl)cc2c2cc(Cl)ccc21 (stereo not drawn)
- IC50 (A549 [4]): 6 µM
- IC50 (MDA-MB-231): 7.5 µM
- IC50 (HCT-116 [5]): 6.5 µM

Compound: O=C1Nc2ccccc2C12CCNC2c1ccccc1 (stereo not drawn)
- inhibition at 50 µM (COS-7): 0.51%
- inhibition at 50 µM (MCF7 [9]): 25.2%

Compound: COc1cc(/C=N/N2C(=O)c3ccccc3C2=O)cc(OC)c1O
- IC50 (MCF7 [6]): 293 µM
- IC50 (HT-29 [7]): 278 µM

Compound: COc1ccc([C@@H]2[C@H]([N+](=O)[O-])[C@H](Cc3ccc(O)cc3)NC23C(=O)c2cccc4cccc3c24)cc1 (stereo partly drawn)
- IC50 (A549 [15]): 96.5 µM

Compound: N#C[C@@H]1CCCN1C(=O)Cc1noc2ccccc12
- IC50 (MCF7 [17]): 2.36 µM
- IC50 (A549 [16]): 90.3 µM

Compound: CC(C)C[C@@H]1N2[C@H](c3ccccc3)[C@H](c3ccccc3)OC(=O)[C@H]2[C@H](c2ccccc2)[C@@]12C(=O)Nc1ccccc12
- IC50 (HCT-116 [10]): 3.9 µM
- IC50 (MCF7 [11]): 4.8 µM
- IC50 (Mahlavu): 14.9 µM
- IC50 (Huh-7): 8.2 µM

Compound: O=C1c2ccccc2C(=O)N1/N=C/c1ccc(F)c(Br)c1
- IC50 (MCF7 [6]): 293 µM
- IC50 (HT-29 [7]): 254 µM

Compound: N#CC1=C(N)OC2=C(C(=O)CO2)C12C(=O)Nc1ccccc12 (stereo not drawn)
- IC50 (MCF7 [12]): ≥ 53 µM
- IC50 (MDA-MB-435 [13]): ≥ 3.6 µM
- GI50 (MDA-MB-435 [14]): 29.9 µM

Second part, led by results:

- IC50 (HT-29 [1]): 1.03 µM
- IC50 (HCT-116 [3]): 1.74 µM
Compound: O=C1CCC(=O)N1c1ccc(O)cc1
- IC50 at 48 h [2]: 1.32 µM

- IC50 (A549 [4]): 6 µM
- IC50 (MDA-MB-231): 6 µM
- IC50 (HCT-116 [5]): 6 µM
Compound: OC(CN1CCCCC1)Cn1c2ccc(Cl)cc2c2cc(Cl)ccc21 (stereo not drawn)

- IC50 (HCT-116 [10]): 3.9 µM
- IC50 (MCF7 [11]): 4.8 µM
- IC50 (Huh-7): 8.2 µM
Compound: CCNC(=O)[C@H]1[C@H](c2ccc([N+](=O)[O-])cc2)[C@@]2(C(=O)Nc3ccccc32)[C@H](CC(C)C)N1[C@H](c1ccccc1)[C@@H](O)c1ccccc1
- IC50 (Mahlavu): 14.9 µM

- IC50 (MCF7 [12]): ≥ 53 µM
- IC50 (MDA-MB-435 [13]): ≥ 3.6 µM
- GI50 (MDA-MB-435 [14]): 2.1 µM
Compound: N#CC1=C(N)OC2=C(C(=O)CO2)C12C(=O)Nc1ccc(Cl)cc12 (stereo not drawn)

- IC50 (A549 [16]): 361 µM
Compound: CCOC(=O)[C@H]1CCCN1C(=O)Cc1noc2ccccc12

- IC50 (MCF7 [12]): ≥ 53 µM
- IC50 (MDA-MB-435 [13]): ≥ 3.6 µM
- GI50 (MDA-MB-435 [14]): 1.8 µM
Compound: N#CC1=C(N)OC2=C(C(=O)CO2)C12C(=O)Nc1ccc(Br)cc12 (stereo not drawn)

- IC50 (A549 [15]): 65.7 µM
- IC50 (Jurkat): 33.1 µM
Compound: O=C1C2=CC=CC3C=CC=C(C23)C12N[C@@H](Cc1ccc(O)cc1)[C@@H]([N+](=O)[O-])[C@H]2c1ccc(Br)cc1 (stereo partly drawn)

- IC50 (K562): 14.7 µM
- IC50 (MCF7 [18]): 24.4 µM
Compound: COc1ccc(/C=C2\CCC[C@@]3(C2=O)[C@@H](c2ccc(OC)cc2)[C@@H]2CSCN2[C@]32C(=O)Nc3ccccc32)cc1

- IC50 (HCT-116 [19]): 9 µM
- IC50 (PC-3): 6 µM
- IC50 (HepG2): 5.5 µM
Compound: Cc1ccc([C@@H]2[C@@H](C(=O)c3c[nH]c4ccccc34)[C@]3(C(=O)Nc4ccccc43)N3CSC[C@@H]23)cc1

Source: ChEMBL document CHEMBL5360530, “Structure activity relationship (SAR) and anticancer activity of pyrrolidine derivatives: Recent developments and future prospects (A review)” (Eur J Med Chem, 2023)
